# Experimental data reported in article PMC10096175, “An In Vitro Antimicrobial, Anticancer and Antioxidant Activity of N–[(2–Arylmethylthio)phenylsulfonyl]cinnamamide Derivatives” (Molecules, 2023).
# Read-outs that look alike come from different tables or passages of the source.
# Columns and labels:
# [1] = tested on: quorum sensing system of C. violaceum; design: method as in doi:10.1016/j.ibiod.2018.06.003; settings: cited from earlier work
# DPPH assay = settings: DPPH radical scavenging; 40 min, room temperature
# Method: The DPPH assay was performed spectrophotometrically. The amount of 30 µL of different concentrations of samples, dissolved in methanol/DMSO (9/1 v/v), was mixed with 170 µL of 0.06 mM DPPH methanolic solution and completed with methanol to a final volume of 300 µL. DPPH methanolic solution with methanol/DMSO (9/1 v/v) was used as a control. After 40 min of incubation at room temperature in the dark, the absorbance was analyzed at λ = 510 nm by a 96-well microplate reader (Epoch, BioTek System, Santa Clara, CA, USA). Ascorbic acid was used as a standard.
# DPPH inhibition was calculated by the following equation:DPPH Inhibition (%) = [Acontrol − Asample)/Acontrol] × 100%
# (§1) IC50 values of the samples were calculated using program GraFit v. 7.0 (Erithacus Software). The analysis was performed three times, with tree replications in each (n = 9). Statistical analysis was performed with one-way ANOVA with Tuckey’s post-hoc test.
# ABTS assay = settings: ABTS radical scavenging; 10 min, 30 °C
# Method: The ABTS assay was performed spectrophotometrically. […] ABTS solution with methanol/DMSO (9/1 v/v) was used as a control. After 10 min of incubation at 30 °C in the dark, the absorbance was analyzed at λ = 750 nm by a 96-well microplate reader (Epoch, BioTek System, Santa Clara, CA, USA). Ascorbic acid was used as a standard.
# ABTS inhibition was calculated by the following equation:ABTS Inhibition (%) = [Acontrol − Asample)/Acontrol] × 100%
# as §1
# S. aureus ATCC 6538 [2] = test: Blood bacteriostatic activity test in sheep blood; assay type: cell-based, Staphylococcus aureus; settings: 24 h, 37 °C, t0 1.30 × 10^8, control t24 2.28 × 10^9
# Method: (§2) The manifestation of the bactericidal properties of chemical compounds is low minimum bactericidal concentration (MBC) values, which allows many groups of researchers to check the killing rate over time (time killing tests). It is an important element in determining the strength and speed of action of a compound on bacteria. Such studies are usually carried out in bacterial media, without additional factors influencing the results.
# (§3) This step was carried out on two types of bacteria, S. aureus ATCC 6538 (Figure 8 and Table 2) and S. epidermidis ATCC 14 990 (Figure 9 and Table 3).
# (§4) The number of bacteria at the initial time (t0) was 1.30 × 10^8 CFU/mL for S. aureus and 1.70 × 10^7 CFU/mL for S. epidermidis. Live bacterial cells were assayed after 24 h of incubation at 37 °C. […] Bacterial controls without compounds grew unhindered and after 24 h (t24) were 2.28 × 10^9 for S. aureus and 5.10 × 10^8 CFU/mL for S. epidermidis. […] It can be assumed that the tested compounds were not related to any fraction of the blood. Attention should be paid to the S. epidermidis tests and the difference between the number of bacteria at t0 and after 24 h of incubation for each compound. The number of bacteria at t0 was 1.70 × 10^7 CFU/mL and after 24 h it decreased to, e.g., 9.40 × 10^6 CFU/mL for compounds 16e and 7.80 × 10^6 CFU/mL for compound 17c. It can be assumed that the tested compounds after being added to blood samples prevented bacteria from multiplying. However, under these conditions, the phagocytic cells take up the bacteria. […] This can be explained by much greater variety of mechanisms of action of S. aureus against phagocytic cells than of S. epidermidis. This can be integrated with the bacterial cell compounds, e.g., protein A, as well as enzymes that bacteria can secrete outside the cell, e.g., coagulase and staphylokinase. Additional studies should be conducted to check how the tested compounds affect the enzymes secreted by S. aureus.
# (§5) The assay was performed as previously described by with a modification. Pure sheep blood was used for the research. Two strains of bacteria S. aureus ATCC 6538 and S. epidermidis ATCC 14990 were used with an inoculum density of approximately 10^8 CFU/mL at 0 time. The final concentration of the compounds was 0.5, 1, 2, 4, and 8 µg/mL, and the final volume of the assay tube was 1 mL. Bacterial survivors were determined on MH agar plates (CFU/mL) at 24 h after exposure.
# E. coli ATCC 8739 = test: MIC determination, reference strain (microdilution); assay type: cell-based; settings: Escherichia coli, ATCC8739
# SKOV-3 cells = test: MTT assay; assay type: cell-based, human; settings: for IC50: Homo sapiens
# B. subtilis ATCC 6633 = test: MIC determination, reference strain (microdilution); assay type: cell-based; settings: Bacillus subtilis, ATCC6633
# HeLa cells = test: MTT assay; assay type: cell-based, human; settings: for IC50: Homo sapiens, HeLa, 24 h
# MCF-7 cells = test: MTT assay; assay type: cell-based, human; settings: for IC50: Homo sapiens
# C. diphtheriae = test: MIC determination, reference strain (microdilution); assay type: cell-based; settings: Corynebacterium diphtheriae
# E. faecalis ATCC 51299 = test: as above; assay type: cell-based; settings: Enterococcus faecalis, ATCC51299
# E. hirae ATCC 10541 = test: as above; assay type: cell-based; settings: Enterococcus hirae, ATCC10541
# [3] = tested on: S. epidermidis ATCC 14990; test: Blood bacteriostatic activity test in sheep blood; assay type: cell-based, Staphylococcus epidermidis; settings: 24 h, 37 °C, t0 1.70 × 10^7, control t24 5.10 × 10^8
# Method: as §2, §3, §4, §5
# C. albicans ATCC 10231 = test: MIC determination, reference fungal strain (microdilution); assay type: cell-based; settings: Candida albicans, ATCC10231
# [4] = tested on: S. epidermidis ATCC 14990; test: MIC determination, reference strain (microdilution); assay type: cell-based; settings: Staphylococcus epidermidis, ATCC14990
# S. aureus ATCC 6538 [5] = test: as above; assay type: cell-based; settings: Staphylococcus aureus, ATCC6538
# in vitro = settings: sheep, pH 7
# HEK-293 cells = test: MTT assay, noncancerous cells; assay type: cell-based; settings: Homo sapiens
# [6] = tested on: cancer cells (HeLa, SKOV-3, MCF-7); test: MTT assay, summary statements on the cancer cells; assay type: cell-based; settings: Homo sapiens, cell line not specified, MTT
# [7] = SK-OV-3, SKOV-3, MTT, 24 h treatment, read-out: IC50
# [8] = MTT, 24 h treatment, read-out: IC50
# [9] = MCF7, MCF-7, MTT, 24 h treatment, read-out: IC50
# [10] = C. albicans ATCC 10231, read-out: MIC
structure (smiles),measurement,setting,value
"O=C(O)C=Cc1ccc2c(c1)OCO2 [3,4–(methylenedioxy)cinnamic acid]",Quorum sensing inhibition,[1]; at 5 mM,completely inhibit
O=C(O)C=Cc1ccc(Cl)cc1 [4–chlorocinnamic acid],Quorum sensing inhibition,[1]; at 5 mM,completely inhibit
O=C(O)C=Cc1ccc([N+](=O)[O-])cc1 [4–nitrocinnamic acid],Quorum sensing inhibition,[1]; at 5 mM,completely inhibit
"O=C1O[C@H]([C@@H](O)CO)C(O)=C1O [Ascorbic acid, ascorbic acid, reference compound]",IC50 DPPH,DPPH assay,10.78 ± 0.11 µg/mL
same,IC50 ABTS,ABTS assay,18.99 ± 0.03 µg/mL
"Cc1cc(S(=O)(=O)NC(=O)C=Cc2ccccc2)c(SCc2cccc3ccccc23)cc1Cl [Compound 16a, N–[4–Chloro–5–methyl–2–(naphthalen–1–ylmethylthio)benzenesulfonyl]cinnamamide]",Number of viable cells of Staphylococcus aureus,S. aureus ATCC 6538 [2]; 1 µg/mL,1.23 × 10^8 CFU/mL
same,Number of viable cells of Staphylococcus aureus,S. aureus ATCC 6538 [2]; 2 µg/mL,7.50 × 10^8 CFU/mL
same,Number of viable cells of Staphylococcus aureus,S. aureus ATCC 6538 [2]; 4 µg/mL,8.10 × 10^8 CFU/mL
same,Number of viable cells of Staphylococcus aureus,S. aureus ATCC 6538 [2]; 8 µg/mL,1.29 × 10^8 CFU/mL
same,MIC,E. coli ATCC 8739,> 125 µg/mL
same,IC50,"SKOV-3 cells; SK-OV-3, 24 h",11.8 ± 0.8 µg/mL
same,MIC,B. subtilis ATCC 6633,62.5 ± 0.29 µg/mL
same,IC50 DPPH,DPPH assay,1048.33 ± 0.48 µg/mL
same,IC50,HeLa cells,13.7 ± 1.12 µg/mL
same,IC50,"MCF-7 cells; MCF7, 24 h",14.3 ± 0.28 µg/mL
same,MIC,C. diphtheriae,62.5 ± 0.29 µg/mL
same,MIC,E. faecalis ATCC 51299,2 ± 0.58 µg/mL
same,MIC,E. hirae ATCC 10541,4 ± 0.15 µg/mL
same,IC50 ABTS,ABTS assay,717.99 ± 1.01 µg/mL
same,Number of viable cells of Staphylococcus epidermidis,[3]; 1 µg/mL,3.00 × 10^6 CFU/mL
same,Number of viable cells of Staphylococcus epidermidis,[3]; 2 µg/mL,4.00 × 10^6 CFU/mL
same,Number of viable cells of Staphylococcus epidermidis,[3]; 4 µg/mL,1.10 × 10^6 CFU/mL
same,Number of viable cells of Staphylococcus epidermidis,[3]; 8 µg/mL,2.50 × 10^6 CFU/mL
same,MIC,C. albicans ATCC 10231,> 125 µg/mL
same,MIC,[4],2 ± 0.58 µg/mL
same,MIC,S. aureus ATCC 6538 [5],1 ± 0.29 µg/mL
same,"hemolysis at 24 h, 125 µg/mL",in vitro,43%
same,IC50,"HEK-293 cells; HEK293, 24 h",13.6 ± 0.19 µg/mL
"Cc1cc(S(=O)(=O)NC(=O)/C=C/c2ccc([N+](=O)[O-])cc2)c(SCc2cccc3ccccc23)cc1Cl [Compound 16f, (E)–N–{4–Chloro–5–methyl–2–[(naphthalen–1–yl)methylthio]phenylsulfonyl}–3–(4–nitrophenyl)acrylamide]",IC50,[6],> 60 µg/mL
same,MIC,"E. coli ATCC 8739; E. coli ATCC 8739, Co-trimoxazole as sulfamethoxazole/trimethoprim, read-out: MIC",> 125 µg/mL
same,IC50,SKOV-3 cells; [7],70.53 ± 0.21 µg/mL
same,Selectivity index (SI),SKOV-3 cells; IC50 HEK-293 / IC50 SKOV-3,1.3
same,MIC,"B. subtilis ATCC 6633; B. subtilis ATCC 6633, Co-trimoxazole as sulfamethoxazole/trimethoprim, read-out: MIC",62.5 ± 0.29 µg/mL
same,IC50 DPPH,DPPH assay,310.50 ± 0.73 µg/mL
same,IC50,HeLa cells; [8],62.8 ± 3.75 µg/mL
same,Selectivity index (SI),HeLa cells; IC50 HEK-293 / IC50 HeLa,1.5
same,IC50,MCF-7 cells; [9],93.5 ± 4.71 µg/mL
same,Selectivity index (SI),MCF-7 cells; IC50 HEK-293 / IC50 MCF-7,1.0
same,MIC,"C. diphtheriae; C. diphtheriae, Co-trimoxazole as sulfamethoxazole/trimethoprim, read-out: MIC",62.5 ± 0.29 µg/mL
same,MIC,"E. faecalis ATCC 51299; E. faecalis ATCC 51299, Co-trimoxazole as sulfamethoxazole/trimethoprim, read-out: MIC",4 ± 0.15 µg/mL
same,MIC,"E. hirae ATCC 10541; E. hirae ATCC 10541, Co-trimoxazole as sulfamethoxazole/trimethoprim, read-out: MIC",4 ± 0.15 µg/mL
same,IC50 ABTS,ABTS assay,597.53 ± 1.3 µg/mL
same,MIC,C. albicans ATCC 10231; [10],> 125 µg/mL
same,MIC,"[4]; S. epidermidis ATCC 14990, Co-trimoxazole as sulfamethoxazole/trimethoprim, read-out: MIC",2 ± 0.58 µg/mL
same,MIC,"S. aureus ATCC 6538 [5]; S. aureus ATCC 6538, ± SD, Co-trimoxazole as sulfamethoxazole/trimethoprim, read-out: MIC",1 ± 0.29 µg/mL
same,"hemolysis at 24 h, 31.25 µg/mL",in vitro; defibrinated sheep blood diluted 1:9 v/v with PBS,12 to 20%
same,IC50,"HEK-293 cells; HEK293, HEK-293, MTT, 24 h treatment, read-out: IC50",94.5 ± 4.7 µg/mL
"CC(=O)N1CCN(c2ccc(OCC3COC(Cn4ccnc4)(c4ccc(Cl)cc4Cl)O3)cc2)CC1 (centres unmarked) [Ketoconazole, reference compound]",MIC,C. albicans ATCC 10231; [10],> 125 µg/mL
"CC[C@]1(O)C[C@@H]2CN(CCc3c([nH]c4ccccc34)[C@@](C(=O)OC)(c3cc4c(cc3OC)N(C)[C@H]3[C@@](O)(C(=O)OC)[C@H](OC(C)=O)[C@]5(CC)C=CCN6CC[C@]43[C@@H]65)C2)C1 [V. sulphate, Vinblastine sulphate, reference compound]",IC50,SKOV-3 cells; [7],0.008 ± 0.0003 µg/mL
same,IC50,HeLa cells; [8],0.005 ± 0.0004 µg/mL
same,IC50,MCF-7 cells; [9],0.007 ± 0.0008 µg/mL
C=CCOC(=O)C=Cc1ccccc1 [allyl cinnamate],Quorum sensing inhibition,[1]; at 1 mM,completely inhibit
NC(=O)C=Cc1ccccc1 [cinnamamide],Quorum sensing inhibition,[1]; at 5 mM,completely inhibit
O=C(O)/C=C/c1ccccc1 [cinnamic acid],Quorum sensing inhibition,[1]; at 5 mM,completely inhibit
OCC=Cc1ccccc1 [cinnamyl alcohol],Quorum sensing inhibition,[1]; at 1 mM,completely inhibit
CC(=Cc1ccccc1)C(=O)O [α–methylcinnamic acid],Quorum sensing inhibition,[1]; at 5 mM,completely inhibit
